Values quoted from earlier work in patent US20090023693A1, “NEW DROSPIRENONE/17BETA-ESTRADIOL REGIMEN, PHARMACEUTICAL COMBINATION PRODUCT AND KIT FOR PERFORMING THIS REGIMEN” (priority 2007, published 2009).

Columns and labels:
[1] = molecular target: T1, mineralocorticoid receptor (Homo sapiens, UniProt P08235); details: compared with aldosterone
T1 sequence (P08235 1-984): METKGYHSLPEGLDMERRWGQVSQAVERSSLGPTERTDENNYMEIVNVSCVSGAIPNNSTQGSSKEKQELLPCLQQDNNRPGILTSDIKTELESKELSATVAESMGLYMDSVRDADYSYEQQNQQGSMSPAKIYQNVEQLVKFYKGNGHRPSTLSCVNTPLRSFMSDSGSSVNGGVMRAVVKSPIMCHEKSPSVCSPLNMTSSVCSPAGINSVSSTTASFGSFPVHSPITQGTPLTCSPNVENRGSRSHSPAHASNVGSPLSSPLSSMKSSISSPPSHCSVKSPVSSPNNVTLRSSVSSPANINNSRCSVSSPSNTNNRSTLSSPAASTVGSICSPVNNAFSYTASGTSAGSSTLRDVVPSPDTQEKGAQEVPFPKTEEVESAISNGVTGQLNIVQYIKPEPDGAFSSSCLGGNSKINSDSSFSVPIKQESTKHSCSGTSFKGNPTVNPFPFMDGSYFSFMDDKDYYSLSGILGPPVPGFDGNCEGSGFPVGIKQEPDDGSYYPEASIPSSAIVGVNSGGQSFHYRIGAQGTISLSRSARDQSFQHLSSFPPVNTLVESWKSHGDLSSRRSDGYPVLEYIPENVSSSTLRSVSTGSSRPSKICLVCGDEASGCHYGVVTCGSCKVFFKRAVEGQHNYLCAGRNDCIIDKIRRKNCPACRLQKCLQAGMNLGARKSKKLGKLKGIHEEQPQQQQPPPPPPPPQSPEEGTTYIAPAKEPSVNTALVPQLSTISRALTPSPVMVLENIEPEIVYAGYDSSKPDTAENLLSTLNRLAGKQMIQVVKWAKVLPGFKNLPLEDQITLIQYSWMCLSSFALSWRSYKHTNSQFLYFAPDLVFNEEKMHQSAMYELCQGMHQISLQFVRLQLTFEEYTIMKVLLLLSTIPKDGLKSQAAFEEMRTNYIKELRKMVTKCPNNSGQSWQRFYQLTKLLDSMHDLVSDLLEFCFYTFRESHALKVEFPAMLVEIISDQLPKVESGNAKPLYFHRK

[2] = oral vs transdermal

- affinity for the mineralocorticoid receptor relative to aldosterone [1]: about five times that of aldosterone
- bioavailabilities after oral and transdermal administration [2]: roughly the same
SMILES: C[C@]12CCC(=O)C=C1[C@@H]1C[C@@H]1[C@H]1[C@@H]3[C@@H]4C[C@@H]4[C@@]4(CCC(=O)O4)[C@@]3(C)CC[C@@H]12 [drospirenone, Drospirenone]
- blood pressure (hypertensive women): lowered
- salt and water retention (in vivo): reduced
